{"source": "patent US7829575B2", "about": "“Methods for treating androgen receptor related disorders” (University of Cincinnati, priority 2006, dated 2010)", "key": {"LNCaP-AI cells": {"test_system": "LNCaP-AI cells", "assay": "Growth of androgen-independent LNCaP-AI cells, MTT", "type": "cell-based", "details": "SMEM, four days", "description": "See, for example, FIG. 3 where LNCaP-A1 cells in SMEM and 22Rv1 cells in CMEM are cultured for four days with DL3, followed by MTT staining and 22Rv1 cells are obtained from ATCC."}, "LNCaP-Nilut-R cells [1]": {"test_system": "LNCaP-Nilut-R cells", "assay": "Growth of Nilut-refractory LNCaP cells, MTT", "type": "cell-based", "details": "10 μM, 4 days, MTT (FIG. 2F)", "description": "(§1) Viable cells are stained with MTT (3-(4,5-dimethylthiazol-2-yl)-2,5-diphenyltetrazolium bromide). *, **, and *** designate p<0.05, <0.01, and 0.001, respectively, compared with controls."}, "LNCaP cells [2]": {"test_system": "LNCaP cells", "assay": "Cellular PSA and AR protein, western blotting", "type": "cell-based", "details": "24 hr", "description": "In FIG. 6, cellular PSA and AR are analyzed by western blotting androgen-starved LNCaP cells."}, "[3]": {"test_system": "LAPC-4 cells (wildtype AR)", "assay": "Cellular PSA and AR protein, western blotting", "type": "cell-based"}, "22Rv1 cells [4]": {"test_system": "22Rv1 cells", "assay": "PSA mRNA expression, real-time RT-PCR", "type": "cell-based", "details": "CMEM, 24 hr, dose response (FIG. 7A)", "description": "In FIG. 7 LNCaP or 22Rv1 cells (A) are treated for 24 hr with DL3 and total RNA is extracted and analyzed by real-time RT-PCR. […] PSA mRNA in LNCaP cells is approximately 20 fold higher than that in 22Rv1 cells (FIG. 7A)."}, "LNCaP cells [5]": {"test_system": "LNCaP cells", "assay": "PSA secretion, ELISA of culture supernatant", "type": "cell-based", "description": "PSA in the culture supernatant is determined by using an enzyme-linked immunosorbent assay (ELISA) kit. PSA levels are normalized by cell density."}, "LNCaP-ARR2-GFP cells": {"test_system": "LNCaP-ARR2-GFP cells", "assay": "AR-regulated GFP expression in LNCaP-ARR2-GFP cells", "type": "cell-based", "details": "SMEM, absence of DHT; DL3 at 25 nM or 20 μM"}, "LNCaP cells [6]": {"test_system": "LNCaP cells", "assay": "PSA and AR mRNA expression, RT-PCR", "type": "cell-based", "details": "6 hr"}, "LNCaP-Flut-R cells": {"test_system": "LNCaP-Flut-R cells", "assay": "PSA secretion, ELISA of culture supernatant", "type": "cell-based", "details": "1 nM DHT, 10 μM, 48 hr (FIG. 5D)", "description": "(§2) For the following discussion, see FIG. 5, where androgen-starved LNCaP, LNCaP-Flut-R, or LNCaP-Nilut-R cells are plated into 96-well plates at 2×10^4 cells/wells in SMEM and treated for 48 hr. PSA in the culture supernatant is determined by using an enzyme-linked immunosorbent assay (ELISA) kit. PSA levels are normalized by cell density. […] The DHT-induced production of PSA is reduced by approximately 50% in cells treated with 5 μM of DL3 (FIG. 5B). […] PSA production is elevated in LNCaP-Flut-R and LNCaP-Nilut-R cells compared with that in their parental cells (FIG. 5D)."}, "LNCaP-Nilut-R cells [7]": {"test_system": "LNCaP-Nilut-R cells", "assay": "PSA secretion, ELISA of culture supernatant", "type": "cell-based", "details": "1 nM DHT, 10 μM, 48 hr (FIG. 5D)", "description": "as §2"}, "[8]": {"test_system": "LAPC-4, 22Rv1, PC-3, DU-145, PWE1-NB14, PWE1-NB26, PC-3AR cells", "assay": "hsp70 expression in other prostate cancer cell lines, western blotting", "type": "cell-based", "description": "Downregulation of hsp70 expression by DL3 is AR-dependent. Thus, the effects of DL3 on hsp70 expression are further investigated in several other prostate cancer cell lines, including LAPC-4 (wildtype AR), 22Rv1 (mutant AR), and AR-negative cell lines PC-3, DU-145, PWE1-NB14 (ATCC), and PWE1-NB26 (ATCC). […] In FIG. 10, LAPC-4 (in SMEM) and all other (in CMEM) cells are treated for 24 hr and analyzed by western blotting. LNCaP cells are transfected for 24 hr with hsp70 or its control vector, then treated for 24 hr. Thus, the above observation is further validated in PC-3 cells stably transfected with wildtype AR (PC-3AR). […] On the other hand, overexpression of hsp70 in LNCaP cells elevates endogenous AR protein levels (FIG. 10, panel C, right). […] Thus, the downregulation of hsp70 in prostate cancer cells by DL3 is in an AR-dependent event."}, "22Rv1 cells [9]": {"test_system": "22Rv1 cells", "assay": "Cellular PSA and AR protein, western blotting", "type": "cell-based", "details": "24 hr"}, "AR-AF1 (LBD deleted)": {"test_system": "AR-AF1 (LBD deleted)", "assay": "PSA promoter luciferase reporter in PC-3 cells co-transfected with AR-AF1", "details": "20 μM, 24 hr"}, "AR-AF2 (NTD deleted)": {"test_system": "AR-AF2 (NTD deleted)", "assay": "PSA promoter luciferase reporter in PC-3 cells co-transfected with AR-AF2", "details": "20 μM, 24 hr"}, "LNCaP cells [10]": {"test_system": "LNCaP cells", "assay": "Expression of AR-regulated genes, quantitative RT-PCR (Table 1)", "type": "cell-based", "details": "DL3 20 μM for 24 hr", "description": "To evaluate the specificity of the effects of DL3, expression of several other genes are determined by quantitative RT-PCR. […] In contrast, DL3 enhances expression of prostate-specific membrane antigen (PSMA), which is repressed by AR activation."}, "[11]": {"test_system": "LNCaP cells (mutant AR, H877A)", "assay": "LNCaP cell growth, MTT staining", "type": "cell-based", "details": "for inhibition at 10 µM: Homo sapiens, LNCaP, 96 h", "description": "as §1"}, "LNCaP cells [12]": {"test_system": "LNCaP cells", "assay": "PSA gene transcription, real-time PCR-based nuclear run-on", "details": "20 μM, 16 hr"}, "human PSA gene promoter": {"test_system": "human PSA gene promoter", "assay": "PSA promoter luciferase reporter (pGL3-PSA-luc) in LNCaP cells", "details": "24 hr"}}, "note": "Read-outs that look alike come from different tables or passages of the source.", "data": [{"smiles": "CC(C)(C)c1ccc(OCCSc2nc(=O)cc(N)[nH]2)cc1", "note": "[DL3, 6-amino-2-(2-4-tert-butyl-phenoxy)-ethylsulfanyl-1H-pyrimidin-4-one]", "values": [{"measurement": "growth of androgen-independent LNCaP-AI cells", "setting": "LNCaP-AI cells", "result": "suppressed"}, {"measurement": "growth of LNCaP-Nilut-R cells", "setting": "LNCaP-Nilut-R cells [1]", "result": "significantly inhibits growth"}, {"measurement": "expression of AR protein", "setting": "LNCaP cells [2]; 5 and 10 μM", "result": "not significantly altered"}, {"measurement": "expression of AR protein", "setting": "LNCaP cells [2]; 20 and 40 μM", "result": "reduced"}, {"measurement": "DHT-induced PSA protein expression", "setting": "LNCaP cells [2]; SMEM, Flut, Nilut, Bical at 20 μM", "result": "dose-dependently reduced"}, {"measurement": "AR protein expression", "setting": "[3]; 20 μM, 24 hr", "result": "similarly reduced"}, {"measurement": "DHT-induced PSA protein expression", "setting": "[3]; SMEM, 1 nM DHT, 20 μM DL3, 24 hr", "result": "inhibitory effects"}, {"measurement": "expression of PSA mRNA", "setting": "22Rv1 cells [4]", "result": "inhibits the expression of PSA mRNA"}, {"measurement": "PSA production in parental LNCaP cells", "setting": "LNCaP cells [5]; 1 nM DHT, 10 μM, 48 hr (FIG. 5D)", "result": "inhibits PSA production"}, {"measurement": "reduction of DHT-induced production of PSA", "setting": "LNCaP cells [5]; 5 μM, 48 hr", "result": "approximately 50%"}, {"measurement": "PSA production under androgen-free conditions", "setting": "LNCaP cells [5]; 20 μM, no DHT, 48 hr", "result": "does not induce PSA production"}, {"measurement": "inhibition at 20 µM", "setting": "LNCaP cells [5]; Homo sapiens, LNCaP, 48 h, read-out: inhibition of DHT-induced PSA production", "result": "~90", "unit": "%"}, {"measurement": "inhibitory effects on DHT-induced PSA production, dose response", "setting": "LNCaP cells [5]; various concentrations of DL3 and DHT (FIG. 5B)", "result": "dose-dependent"}, {"measurement": "PSA production stimulated by Nilut", "setting": "LNCaP cells [5]; various concentrations of DL3 and Nilut (FIG. 5C)", "result": "blocked"}, {"measurement": "GFP expression (AR agonist activity)", "setting": "LNCaP-ARR2-GFP cells", "result": "does not induce GFP expression"}, {"measurement": "AR mRNA expression", "setting": "LNCaP cells [6]", "result": "not significantly altered"}, {"measurement": "PSA production in LNCaP-Flut-R cells", "setting": "LNCaP-Flut-R cells", "result": "inhibits PSA production"}, {"measurement": "PSA production in LNCaP-Nilut-R cells", "setting": "LNCaP-Nilut-R cells [7]", "result": "inhibits PSA production"}, {"measurement": "downregulation of hsp70 expression across AR-positive and AR-negative cell lines", "setting": "[8]; LAPC-4, 22Rv1 vs AR-negative PC-3, DU-145, PWE1-NB14, PWE1-NB26, 24 hr", "result": "found in only the cells expressing AR"}, {"measurement": "hsp70 expression in PC-3AR cells", "setting": "[8]; PC-3 stably transfected with wildtype AR", "result": "downregulates hsp70 expression"}, {"measurement": "expression of AR protein", "setting": "22Rv1 cells [9]; 5 and 10 μM", "result": "not significantly altered"}, {"measurement": "expression of AR protein", "setting": "22Rv1 cells [9]; 20 and 40 μM", "result": "reduced"}, {"measurement": "PSA protein expression", "setting": "22Rv1 cells [9]; CMEM, increasing concentrations", "result": "inhibitory effects"}, {"measurement": "activation of PSA promoter activity by AR-AF1", "setting": "AR-AF1 (LBD deleted)", "result": "does not inhibit"}, {"measurement": "activation of PSA promoter activity by AR-AF2", "setting": "AR-AF2 (NTD deleted)", "result": "does not inhibit"}, {"measurement": "IL-8 expression DL3/CTR (%)", "setting": "LNCaP cells [10]", "result": 107, "unit": "%"}, {"measurement": "IL-8 expression level relative to β-actin", "setting": "LNCaP cells [10]", "result": "8.59e−04"}, {"measurement": "PSA expression DL3/CTR (%)", "setting": "LNCaP cells [10]", "result": 3, "unit": "%"}, {"measurement": "PSA expression level relative to β-actin", "setting": "LNCaP cells [10]", "result": "3.03e−02"}, {"measurement": "PSCA expression DL3/CTR (%)", "setting": "LNCaP cells [10]", "result": 55, "unit": "%"}, {"measurement": "PSCA expression level relative to β-actin", "setting": "LNCaP cells [10]", "result": "1.90e−04"}, {"measurement": "PSMA expression DL3/CTR (%)", "setting": "LNCaP cells [10]", "result": 379, "unit": "%"}, {"measurement": "PSMA expression level relative to β-actin", "setting": "LNCaP cells [10]", "result": "1.35e−01"}, {"measurement": "hK2 expression DL3/CTR (%)", "setting": "LNCaP cells [10]", "result": 18, "unit": "%"}, {"measurement": "hK2 expression level relative to β-actin", "setting": "LNCaP cells [10]", "result": "4.05e−03"}, {"measurement": "concentration at which inhibition of DHT-stimulated growth reaches a plateau", "setting": "[11]; 1 nM DHT, 4 days", "result": "greater than 10 μM"}, {"measurement": "effect on DHT-stimulated growth of LNCaP cells", "setting": "[11]; 1 nM DHT, SMEM, 4 days, dose response", "result": "inhibits DHT-stimulated growth"}, {"measurement": "growth of parental LNCaP cells", "setting": "[11]; 10 μM, 4 days, MTT (FIG. 2F)", "result": "significantly inhibits growth"}, {"measurement": "additive effect on growth of DL3 with Flut, Nilut or Bical", "setting": "[11]; CMEM, 4 days, 5 μM DL3 and 10 μM of Flut, Nilut, or Bical", "result": "No significant additive effect"}, {"measurement": "inhibition at 10 µM", "setting": "[11]; read-out: inhibition of growth of LNCaP cells in the absence of DHT", "result": 27, "unit": "%"}, {"measurement": "inhibition at 10 µM", "setting": "[11]; read-out: inhibition of growth of LNCaP cells in the presence of DHT", "result": 82, "unit": "%"}, {"measurement": "growth of LNCaP cells in the absence of DHT", "setting": "[11]; no DHT, dose response", "result": "inhibits growth"}, {"measurement": "DHT-induced PSA mRNA transcription activity of nuclear extracts", "setting": "LNCaP cells [12]; 1 nM DHT", "result": "significantly reduced"}, {"measurement": "basal PSA mRNA transcription activity of nuclear extracts", "setting": "LNCaP cells [12]", "result": "significantly reduced"}, {"measurement": "basal PSA promoter activity", "setting": "human PSA gene promoter; 20 μM alone", "result": "does not significantly alter"}, {"measurement": "PSA promoter activity induced by DHT", "setting": "human PSA gene promoter; 20 μM, 1 nM DHT", "result": "attenuates"}]}]}
